Data on 18 molecules can be found in US12410171B2, “Tropomyosin receptor kinase (TRK) degradation compounds and methods of use” (Cullgen (Shanghai), Inc., priority 2020, dated 2025).

The target of the test is T1, TPM3-TRKA fusion protein (Homo sapiens, UniProt P04629).
T1 construct: The resulted chimeric proteins always retain the kinase domain of TRK proteins; TPM3 (fusion partner, N-terminal part of tropomyosin alpha-3, P06753); endogenous in cells; host or cells: KM12 colon cancer cells; the other entry of the earlier key: TPM3 (P06753, Tropomyosin alpha-3 chain)
Put plainly: TPM3-TRKA fusion protein levels in KM12 cells (Western blot). The conditions noted are these: 16 h; TPM3-TRKA degradation in KM12 cells at 10 nM compound, category of percentage degradation; read-out: Degradation (at 10 nM). In kind it is cell-based. The method in brief:
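TPM3-TRKA levels were assessed by Western blot with chemiluminescent detection and band densitometry, after SDS-PAGE of BCA-normalized RIPA lysates. Before lysis, KM12 cells received DMSO, compounds or matched control compounds at concentrations including 0.1, 1, 10 and 100 nM and 0.4–30 nM. Exposures lasted 4 h, 8–16 h or 16 h.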
For orientation: A western blot detects proteins with antibodies after separation by electrophoresis.

A value given as a limit tells only on which side of the number the result lay.

T1 sequence (P04629 with tags, fused parts or gaps): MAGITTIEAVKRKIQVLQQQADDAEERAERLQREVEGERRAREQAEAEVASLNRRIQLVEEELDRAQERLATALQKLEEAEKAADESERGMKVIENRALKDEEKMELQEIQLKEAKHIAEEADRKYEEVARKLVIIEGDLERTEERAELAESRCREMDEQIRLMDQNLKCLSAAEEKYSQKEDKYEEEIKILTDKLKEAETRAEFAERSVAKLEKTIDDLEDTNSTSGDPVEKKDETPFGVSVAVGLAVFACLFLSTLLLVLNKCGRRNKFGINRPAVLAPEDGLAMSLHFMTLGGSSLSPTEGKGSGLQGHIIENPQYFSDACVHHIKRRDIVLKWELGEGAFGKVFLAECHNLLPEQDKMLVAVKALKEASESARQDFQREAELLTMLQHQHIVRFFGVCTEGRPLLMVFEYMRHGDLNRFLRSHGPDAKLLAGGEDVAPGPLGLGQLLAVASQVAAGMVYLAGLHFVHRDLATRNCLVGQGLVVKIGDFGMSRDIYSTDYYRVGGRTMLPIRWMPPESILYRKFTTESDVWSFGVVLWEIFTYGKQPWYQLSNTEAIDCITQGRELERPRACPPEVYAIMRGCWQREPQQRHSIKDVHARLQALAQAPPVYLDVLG

On to `O=C1CCC(N2C(=O)c3ccc(NCCOCCOCCOCCOCCC(=O)N4CCN(c5cccc(-c6cnc7ccc(N8CCC[C@@H]8c8cccc(F)c8)nn67)n5)CC4)cc3C2=O)C(=O)N1` (stereo partly drawn) [TR-120, 2-(2,6-Dioxopiperidin-3-yl)-5-((15-(4-(6-(6-((R)-2-(3-fluorophenyl)pyrrolidin-1-yl)imidazo[1,2-6]pyridazin-3-yl)pyridin-2-yl)piperazin-1-yl)-15-oxo-3,6,9,12-tetraoxapentadecyl)amino) isoindoline-1,3-dione], for which the percent degradation of TPM3-TRKA protein at 0.01 µM was over 80%.

`O=C1CCC(N2C(=O)c3ccc(NCCC(=O)N4CCN(c5cccc(-c6cnc7ccc(N8CCC[C@@H]8c8cccc(F)c8)nn67)n5)CC4)cc3C2=O)C(=O)N1` (stereo partly drawn) [TR-121, 2-(2,6-Dioxopiperidin-3-yl)-5-((3-(4-(6-(6-((R)-2-(3-fluorophenyl)pyrrolidin-1-yl)imidazo[1,2-b]pyridazin-3-yl)pyridin-2-yl)piperazin-1-yl)-3-oxopropyl)amino) isoindoline-1,3-dione]: the percent degradation of TPM3-TRKA protein at 0.01 µM is over 80%.

Take `O=C1CCC(N2C(=O)c3ccc(NCCCCCC(=O)N4CCN(c5cccc(-c6cnc7ccc(N8CCC[C@@H]8c8cccc(F)c8)nn67)n5)CC4)cc3C2=O)C(=O)N1` (stereo partly drawn) [TR-122, 2-(2,6-Dioxopiperidin-3-yl)-5-((6-(4-(6-(6-((R)-2-(3-fluorophenyl)pyrrolidin-1-yl)imidazo[1,2-b]pyridazin-3-yl)pyridin-2-yl)piperazin-1-yl)-6-oxohexyl)amino) isoindoline-1,3-dione]: the percent degradation of TPM3-TRKA protein at 0.01 µM was over 80%.

Take `O=C(CN1CCN(c2cccc(-c3cnc4ccc(N5CCC[C@@H]5c5cccc(F)c5)nn34)n2)CC1)NCCCCNc1ccc2c(c1)C(=O)N(C1CCC(=O)NC1=O)C2=O` (stereo partly drawn) [TR-124, N-(4-((2-(2,6-dioxopiperidin-3-yl)-1,3-dioxoisoindolin-S-yl)amino)butyl)-2-(4-(6-(6-((R)-2-(3-fluorophenyl)pyrrolidin-1-yl)imidazo[1,2-b]pyridazin-3-yl)pyridin-2-yl)piperazin-1-yl)acetamide]: the percent degradation of TPM3-TRKA protein at 0.01 µM was over 80%.

Take `O=C(CN1CCN(c2cccc(-c3cnc4ccc(N5CCC[C@@H]5c5cccc(F)c5)nn34)n2)CC1)NCCOCCOCCOCCOCCNc1ccc2c(c1)C(=O)N(C1CCC(=O)NC1=O)C2=O` (stereo partly drawn) [TR-125, N-(14-((2-(2,6-dioxopiperidin-3-yl)-1,3-dioxoisoindolin-5-yl)amino)-3,6,9,12-tetraoxatetradecyl)-2-(4-(6-(6-((R)-2-(3-fluorophenyl)pyrrolidin-1-yl)imidazo[1,2-b]pyridazin-3-yl)pyridin-2-yl)piperazin-1-yl)acetamide]: the percent degradation of TPM3-TRKA protein at 0.01 µM is over 80%.

On to `O=C(CN1CCN(c2cccc(-c3cnc4ccc(N5CCC[C@@H]5c5cccc(F)c5)nn34)n2)CC1)NCCCNc1ccc2c(c1)C(=O)N(C1CCC(=O)NC1=O)C2=O` (stereo partly drawn) [TR-127, N-(3-((2-(2,6-dioxopiperidin-3-yl)-1,3-dioxoisoindolin-S-yl)amino)propyl)-2-(4-(6-(6-((R)-2-(3-fluorophenyl)pyrrolidin-1-yl)imidazo[1,2-b]pyridazin-3-yl)pyridin-2-yl)piperazin-1-yl)acetamide], for which the percent degradation of TPM3-TRKA protein at 0.01 µM was over 80%.

Consider `O=C(CN1CCN(c2cccc(-c3cnc4ccc(N5CCC[C@@H]5c5cccc(F)c5)nn34)n2)CC1)NCCCCCCNc1ccc2c(c1)C(=O)N(C1CCC(=O)NC1=O)C2=O` (stereo partly drawn) [TR-128, N-(6-((2-(2,6-dioxopiperidin-3-yl)-1,3-dioxoisoindolin-5-yl)amino)hexyl)-2-(4-(6-(6-((R)-2-(3-fluorophenyl)pyrrolidin-1-yl)imidazo[1,2-b]pyridazin-3-yl)pyridin-2-yl)piperazin-1-yl)acetamide], for which the percent degradation of TPM3-TRKA protein at 0.01 µM was over 80%.

In the case of `O=C(CN1CCN(c2cccc(-c3cnc4ccc(N5CCC[C@@H]5c5cccc(F)c5)nn34)n2)CC1)NCCOCCOCCOCCNc1ccc2c(c1)C(=O)N(C1CCC(=O)NC1=O)C2=O` (stereo partly drawn) [TR-129, N-(2-(2-(2-(2-((2-(2,6-dioxopiperidin-3-yl)-1,3-dioxoisoindolin-5-yl)amino)ethoxy)ethoxy)ethoxy)ethyl)-2-(4-(6-(6-((R)-2-(3-fluorophenyl)pyrrolidin-1-yl)imidazo[1,2-b]pyridazin-3-yl)pyridin-2-yl)piperazin-1-yl)acetamide], the percent degradation of TPM3-TRKA protein at 0.01 µM was over 80%.

As to `O=C(CN1CCN(c2cccc(-c3cnc4ccc(N5CCC[C@@H]5c5cccc(F)c5)nn34)n2)CC1)NCCCCCNc1ccc2c(c1)C(=O)N(C1CCC(=O)NC1=O)C2=O` (stereo partly drawn) [TR-131, N-(5-((2-(2,6-dioxopiperidin-3-yl)-1,3-dioxoisoindolin-5-yl)amino)pentyl)-2-(4-(6-(6-((R)-2-(3-fluorophenyl)pyrrolidin-1-yl)imidazo[1,2-b]pyridazin-3-yl)pyridin-2-yl)piperazin-1-yl)acetamide], the percent degradation of TPM3-TRKA protein at 0.01 µM is over 80%.

As to `O=C(CN1CCN(c2cccc(-c3cnc4ccc(N5CCC[C@@H]5c5cccc(F)c5)nn34)n2)CC1)NCCOCCOCCOCCOCCOCCNc1ccc2c(c1)C(=O)N(C1CCC(=O)NC1=O)C2=O` (stereo partly drawn) [TR-132, N-(17-((2-(2,6-dioxopiperidin-3-yl)-1,3-dioxoisoindolin-5-yl)amino)-3,6,9,12,15-pentaoxaheptadecyl)-2-(4-(6-(6-((R)-2-(3-fluorophenyl)pyrrolidin-1-yl)imidazo[1,2-b]pyridazin-3-yl)pyridin-2-yl)piperazin-1-yl)acetamide], the percent degradation of TPM3-TRKA protein at 0.01 µM is over 80%.

For `O=C(CN1CCN(c2cccc(-c3cnc4ccc(N5CCC[C@@H]5c5cccc(F)c5)nn34)n2)CC1)NCCOCCOCCNc1ccc2c(c1)C(=O)N(C1CCC(=O)NC1=O)C2=O` (stereo partly drawn) [TR-134, N-(2-(2-(2-((2-(2,6-dioxopiperidin-3-yl)-1,3-dioxoisoindolin-5-yl)amino)ethoxy)ethoxy)ethyl)-2-(4-(6-(6-((R)-2-(3-fluorophenyl)pyrrolidin-1-yl)imidazo[1,2-b]pyridazin-3-yl)pyridin-2-yl)piperazin-1-yl)acetamide], the percent degradation of TPM3-TRKA protein at 0.01 µM is over 80%.

For `O=C1CCC(N2C(=O)c3ccc(NCCOCCOCCOCCOCCOCCC(=O)N4CCN(c5ccc(C(=O)Nc6n[nH]c7ccc(Cc8cc(F)cc(F)c8)cc67)c(NC6CCOCC6)c5)CC4)cc3C2=O)C(=O)N1` (stereo not drawn) [TR-137, N-(5-(3,5-Difluorobenzyl)-1H-indazol-3-yl)-4-(4-(1-((2-(2,6-dioxopiperidin-3-yl)-1,3-dioxoisoindolin-5-yl)amino)-3,6,9, 12, 15-pentaoxaoctadecan-18-oyl)piperazin-1-yl)-2-((tetrahydro-2H-pyran-4-yl)amino)benzamide], the percent degradation of TPM3-TRKA protein at 0.01 µM was over 80%.

As for `O=C1CCC(N2C(=O)c3ccc(NCCOCCOCCC(=O)N4CCN(c5ccc(C(=O)Nc6n[nH]c7ccc(Cc8cc(F)cc(F)c8)cc67)c(NC6CCOCC6)c5)CC4)cc3C2=O)C(=O)N1` (stereo not drawn) [TR-141, N-(5-(3,5-Difluorobenzyl)-1H-indazol-3-yl)-4-(4-(3-(2-(2-((2-(2,6-dioxopiperidin-3-yl)-1,3-dioxoisoindolin-5-yl)amino)ethoxy)ethoxy)propanoyl)piperazin-1-yl)-2-((tetrahydro-2H-pyran-4-yl)amino)benzamide], the percent degradation of TPM3-TRKA protein at 0.01 µM is over 80%.

As to `O=C1CCC(N2C(=O)c3ccc(NCCCCC(=O)N4CCN(c5ccc(C(=O)Nc6n[nH]c7ccc(Cc8cc(F)cc(F)c8)cc67)c(NC6CCOCC6)c5)CC4)cc3C2=O)C(=O)N1` (stereo not drawn) [TR-142, N-(5-(3,5-Difluorobenzyl)-1H-indazol-3-yl)-4-(4-(5-((2-(2,6-dioxopiperidin-3-yl)-1,3-dioxoisoindolin-5-yl)amino)pentanoyl)piperazin-1-yl)-2-((tetrahydro-2H-pyran-4-yl)amino)benzamide], the percent degradation of TPM3-TRKA protein at 0.01 µM was over 80%.

On to `O=C1CCC(N2C(=O)c3ccc(NCCOCCC(=O)N4CCN(c5ccc(C(=O)Nc6n[nH]c7ccc(Cc8cc(F)cc(F)c8)cc67)c(NC6CCOCC6)c5)CC4)cc3C2=O)C(=O)N1` (stereo not drawn) [TR-143], for which the percent degradation of TPM3-TRKA protein at 0.01 µM is over 80%.

As for `O=C1CCC(N2C(=O)c3ccc(NCC(=O)N4CCN(c5ccc(C(=O)Nc6n[nH]c7ccc(Cc8cc(F)cc(F)c8)cc67)c(NC6CCOCC6)c5)CC4)cc3C2=O)C(=O)N1` (stereo not drawn) [TR-144, N-(5˜ (3,5-Difluorobenzyl)-1H-indazol-3-yl)-4-(4-((2˜ (2,6-dioxopiperidin-3-yl)-1,3-dioxoisoindolin-5-yl)glycyl)piperazin-1-yl)-2-((tetrahydro-2H-pyran-4-yl)amino)benzamide], the percent degradation of TPM3-TRKA protein at 0.01 µM was over 80%.

Take `O=C1CCC(N2C(=O)c3ccc(NCCC(=O)N4CCN(c5ccc(C(=O)Nc6n[nH]c7ccc(Cc8cc(F)cc(F)c8)cc67)c(NC6CCOCC6)c5)CC4)cc3C2=O)C(=O)N1` (stereo not drawn) [TR-145, N—(S-(3,5-Difluorobenzyl)-1H-indazol-3-yl)-4-(4-(3-((2-(2,6-dioxopiperidin-3-yl)-1,3-dioxoisoindolin-S-yl)amino)propanoyl)piperazin-1-yl)-2-((tetrahydro-2H-pyran-4-yl)amino)benzamide]: the percent degradation of TPM3-TRKA protein at 0.01 µM was over 80%.

In the case of `O=C1CCC(N2C(=O)c3ccc(NCCOCCOCCOCCC(=O)N4CCN(c5ccc(C(=O)Nc6n[nH]c7ccc(Cc8cc(F)cc(F)c8)cc67)c(NC6CCOCC6)c5)CC4)cc3C2=O)C(=O)N1` (stereo not drawn) [TR-146, N-(5-(3,5-Difluorobenzyl)-1H-indazol-3-yl)-4-(4-(3-(2-(2-(2-((2-(2,6-dioxopiperidin-3-yl)-1,3-dioxoisoindolin-5-yl)amino)ethoxy)ethoxy)ethoxy)propanoyl)piperazin-1-yl)-2-((tetrahydro-2/-pyran-4-yl)amino)benzamide], the percent degradation of TPM3-TRKA protein at 0.01 µM is over 80%.
